In one assay the test system is Fz7CRD-Fc. The format is binding. The following applies: for S/N: ratio of signal for target protein over BSA background; for ELISA: spot phage ELISA signal, DCP displayed on M13 p8. (In general: In an ELISA, binding on a coated surface is turned into a signal by an enzyme label.)
The subject of the next assay is Notch2NRR. Briefly: Spot phage ELISA, Notch2NRR. The assay is classed as binding, human. The following applies: for S/N: spot phage ELISA on Notch2NRR, signal-to-noise ratio of phage-displayed DCP clone; for ELISA: spot phage ELISA signal of phage-displayed DCP clone on Notch2NRR.
The test system of a further assay is HtrA1. The assay is classed as binding, human. The following applies: ratio of signal for target protein over BSA background.

Where no end group is shown, it is not given here.

“GCVHVIREWWCKQDSDSSWFVCGPNGFCG [Fz7CRD-Fc EET I-II 17]”: in the assay with Fz7CRD-Fc, the S/N is given as 26.4 and the ELISA was 2.69. Regarding “GPTQSIWGECGGIGYSGPTVCASGTTCQVLTPFYSFCLPGAS (also: bicyclic or more (positions not given here)) [Fz7CRD-Fc CBD 14]”, in the assay on Fz7CRD-Fc, the S/N was 15.7 and the ELISA is given as 1.18. Turning to “GPTQSWFGQCGGIGYSGPTVCASGTTCQVLVPDMSFCLPGAS (also: bicyclic or more (positions not given here)) [Fz7CRD-Fc CBD 87]”, in the assay on Fz7CRD-Fc, the S/N turned out to be 32.0 and the ELISA is given as 2.66.

For the sequence “GCTLYMYLCKQDSDCLAGWMFHHCG [Fz7CRD-Fc EET I-II 26]”, in the assay with Fz7CRD-Fc, the S/N is on record as 28.9 and the ELISA was found to be 1.79.

As to “GCGWLPELKLWCKQDSDCLAGCVCEDMIDCG (also: bicyclic or more (positions not given here)) [Fz7CRD-Fc EET I-II 42]”, in the assay on Fz7CRD-Fc, the S/N came to 36.2 and the ELISA is listed as 2.79. With “AFDCLGQCGRCDFHKLQCIWSNRNYPYCNSSCTR (disulfide (positions not given here)) [AVR9 3]”, in the assay with Notch2NRR, the S/N worked out at 47.3 and the ELISA came to 3.31.

Take “GPTQSKYGVCGGIGYSGPTVCASGTTCQVLYPGYSLCLPGAS (also: bicyclic or more (positions not given here)) [Fz7CRD-Fc CBD 72]”: in the assay on Fz7CRD-Fc, the S/N was 37.9 and the ELISA is 2.80. On the same counts, the results for “GPTQSLWGECGGIGYSGPTVCASGTTCQVLSPEYSFCLPGAS (also: bicyclic or more (positions not given here)) [Fz7CRD-Fc CBD 18]” are 16.4 and 1.75. As to “GPTQSHYGQCGGEGYWGRWICSGTTCQPYNTHFSQCLPGAS (disulfide (positions not given here)) [CBD 2]”, in the assay on Notch2NRR, the S/N amounted to 28.5 and the ELISA is 3.05. Turning to “AFDCLGQCGRCDFHKLQCVVGWASMRNYCNSSCTR (disulfide (positions not given here)) [AVR9 8]”, in the assay with Notch2NRR, the S/N came out at 42.0 and the ELISA is reported as 3.14. On to “GCKLMRQRCKQDSDCLAGCVCTQQWWCG (disulfide (positions not given here)) [N2N-EET-94]”, for which, in the assay with Notch2NRR, the S/N is 36.3 and the ELISA worked out at 3.52. Consider “AFDCLGQCGRCDFHKLQCVHSNRNSFYCNSSCTR (disulfide (positions not given here)) [AVR9 7]”, for which, in the assay with Notch2NRR, the S/N came out at 43.6 and the ELISA was 3.23. In the case of “AFDCLGQCGRCDFHKLQCVLVEPSGWYQVISWKYCNSSCTR (also: bicyclic or more (positions not given here)) [Fz7CRD-Fc AVR9 2]”, in the assay on Fz7CRD-Fc, the S/N stood at 5.0 and the ELISA stood at 0.29. For the sequence “GCTLYMYLCKQDSDCLAGWMFHHCG [Fz7CRD-Fc EET I-II 55]”, in the assay on Fz7CRD-Fc, the S/N is listed as 29.3 and the ELISA turned out to be 2.81. For the sequence “GPTQSMWGECGGIGYSGPTVCASGTTCQVLSPFYSFCLPGAS (also: bicyclic or more (positions not given here)) [Fz7CRD-Fc CBD 56]”, in the assay on Fz7CRD-Fc, the S/N turned out to be 3.7 and the ELISA was determined as 0.27. Turning to “AFDCLGQCGRCDFHKLQCVWSNRNSLYCNSSCTR (disulfide (positions not given here)) [AVR9 1]”, in the assay on Notch2NRR, the S/N is 2.0 and the ELISA is listed as 3.42. Turning to “GPTQSHYGQCGGTGYWGMRNCSGTTCQRFAPQNSQCLPGAS (disulfide (positions not given here)) [CBD 5]”, in the assay on Notch2NRR, the S/N stood at 47.2 and the ELISA was determined as 3.59. Turning to “GPTQSAFGECGGIGYSGPTVCASGTTCQVLSPYWSFCLPGAS (also: bicyclic or more (positions not given here)) [Fz7CRD-Fc CBD 15]”, in the assay on Fz7CRD-Fc, the S/N was 38.4 and the ELISA was 2.76.

Take “GPTQSAFGECGGIGYSGPTVCASGTTCQVLSPMFSFCLPGAS (also: bicyclic or more (positions not given here)) [Fz7CRD-Fc CBD 57]”: in the assay on Fz7CRD-Fc, the S/N was 28.7 and the ELISA is reported as 2.41. Regarding “AFDCLGQCGRCDFHKLQCVWGNRNSSYCNSSCTR (disulfide (positions not given here)) [AVR9 6]”, in the assay with Notch2NRR, the S/N amounted to 35.2 and the ELISA worked out at 3.28. Consider “GCTLMRTRCKQDSDCLAGCVCEHIYWCG (disulfide (positions not given here)) [N2N-EET-n19]”, for which, in the assay on Notch2NRR, the S/N is on record as 12.8 and the ELISA amounted to 3.16.

With “GCNGQRRPWGRWCKQDSDCLAGCVCGPNGFCG (disulfide (positions not given here)) [N2N-EET-33-P1]”, in the assay on Notch2NRR, the S/N stood at 11.9 and the ELISA was 2.39. With “GPTQSHYGQCGGFGYWGMRHCSGTTCQWQHLPSQ CLPGAS (disulfide) [CBD 3]”, in the assay on Notch2NRR, the S/N is on record as 36.6 and the ELISA worked out at 3.00.

For the sequence “GCGWLPELKLWCKQDSDCLAGCVCEDMIDCG (also: bicyclic or more (positions not given here)) [Fz7CRD-Fc EET I-II 38]”, in the assay with Fz7CRD-Fc, the S/N is 15.1 and the ELISA was found to be 1.32. As to “AFDCLGQCGRCDFHKLQCVWSNRNSPYCNSSCTR (disulfide (positions not given here)) [AVR9 2]”, in the assay with Notch2NRR, the S/N amounted to 44.7 and the ELISA is 3.32.

As for “WIPCISAALGCSCKNKVCYYTILPISYYWHLVCGESCV (also: bicyclic or more (positions not given here)) [HtrA1 CirculinA 45]”, the S/N in the assay on HtrA1 amounted to 8.2.

Regarding “GPTQSMFGECGGIGYSGPTVCASGTTCQVLSPFYSFCLPGAS (also: bicyclic or more (positions not given here)) [Fz7CRD-Fc CBD 47]”, in the assay with Fz7CRD-Fc, the S/N is given as 30.4 and the ELISA is on record as 2.59. Turning to “WIPCISAALGCSCKNKVCYYAGKIYSWQAQLLCGESCV (also: bicyclic or more (positions not given here)) [HtrA1 CirculinA 93]”, the S/N with HtrA1 amounted to 8.4. Turning to “AFDCLGQCGRCDFHKLQCVFWHWYYCNSSCTR (also: bicyclic or more (positions not given here)) [HtrA1 AVR9 84]”, the S/N with HtrA1 was found to be 8.5. As to “GPTQSHYGQCGGSGYWGLFMCASGTTCQSVTMTVSQCLPGAS (also: bicyclic or more (positions not given here)) [HtrA1 CBD 54]”, the S/N in the assay with HtrA1 came to 5.6. Consider “AFDCLGQCGRCDFHKLQCVVFQIIYQAVNYCNSSCTR (also: bicyclic or more (positions not given here)) [HtrA1 AVR9 88]”, for which the S/N in the assay on HtrA1 is listed as 9.5. As for “GCGWWFKQWFCKQDSDCLAGCVCGPNGFCG (also: bicyclic or more (positions not given here)) [Fz7CRD-Fc EET I-II 19]”, in the assay with Fz7CRD-Fc, the S/N came out at 3.8 and the ELISA is 1.83.

As for “GPTQSAWGWCGGIGYSGPTVCASGTTCQVLSPYESYCLPGAS (also: bicyclic or more (positions not given here)) [Fz7CRD-Fc CBD 53]”, in the assay on Fz7CRD-Fc, the S/N worked out at 4.3 and the ELISA worked out at 0.32. Take “AFDCLGQCGRCDFHKLQCVIQQMRWKAQPDGYCNSSCTR (also: bicyclic or more (positions not given here)) [HtrA1 AVR9 37]”: in the assay on HtrA1, the S/N was 9.7. Regarding “AFDCLGQCGRCDFHKLQCVLWTVANMQHYYCNSSCTR (also: bicyclic or more (positions not given here)) [HtrA1 AVR9 85]”, the S/N with HtrA1 amounted to 6.5.

For the sequence “AFDCLGQCGRCDFHKLQCVWRYIQKMRYCNSSCTR (also: bicyclic or more (positions not given here)) [HtrA1 AVR9 89]”, in the assay with HtrA1, the S/N amounted to 14.9. For “WIPCISAALGCSCKNKVCYFFHKLMYYMCGESCV (also: bicyclic or more (positions not given here)) [HtrA1 CirculinA 24]”, in the assay on HtrA1, the S/N turned out to be 17.7. With “GPTQSHYGQCGGWGYTGWYQCASGTTCQGPRSRLSQCLPGAS (also: bicyclic or more (positions not given here)) [HtrA1_CBDwt46]”, in the assay with HtrA1, the S/N is given as 25.9. As to “WIPCISAALGCSCKNKVCYYVMKYCGESCV (also: bicyclic or more (positions not given here)) [HtrA1 CirculinA 17]”, the S/N with HtrA1 is 13.7. “GCGYWYITWFCKQDSDCLAGCVCGPNGFCG (also: bicyclic or more (positions not given here)) [Fz7CRD-Fc EET I-II 30]”: in the assay on Fz7CRD-Fc, the S/N is given as 3.0 and the ELISA is listed as 2.64. With “AFDCLGQCGRCDFHKLQCVLWHQWVKWYVYCNSSCTR (also: bicyclic or more (positions not given here)) [HtrA1 AVR9 68]”, in the assay on HtrA1, the S/N turned out to be 8.9.

“GPTQSHYGQCGGRGYFGTMYCASGTTCQFKWRRDSQCLPGAS (also: bicyclic or more (positions not given here)) [HtrA1 CBD 74]”: the S/N with HtrA1 worked out at 22.8. Turning to “AFDCLGQCGRCDFHKLQCVWSIYVKFWYCNSSCTR (also: bicyclic or more (positions not given here)) [HtrA1 AVR9 4]”, in the assay on HtrA1, the S/N is on record as 21.2. For “GPTQSVYGYCGGIGYSGPTVCASGTTCQVLFPGHSFCLPGAS (also: bicyclic or more (positions not given here)) [Fz7CRD-Fc CBD 23]”, in the assay on Fz7CRD-Fc, the S/N is 20.9 and the ELISA is recorded as 2.78. Take “WIPCISAALGCSCKNKVCYHFQHWVQMNKCGESCV (also: bicyclic or more (positions not given here)) [HtrA1 CirculinA 82]”: in the assay on HtrA1, the S/N amounted to 10.4. As to “GPTQSAGGWCGGIGYSGPTVCASGTTCQVLTPMESICLPGAS (also: bicyclic or more (positions not given here)) [Fz7CRD-Fc CBD 29]”, in the assay on Fz7CRD-Fc, the S/N turned out to be 5.7 and the ELISA is recorded as 0.36.

Values taken from publication PMC10977697 (PLOS ONE, 2024).
